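Assay format: 96-well plates, 48-hour exposure. At the TGI there is no net growth.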
Assays:
Assay in all cases: growth of human tumour cells (NCI), 48 h
[1] = test system: OVCAR-4 ovarian
[2] = test system: MDA-MB-231 breast
[3] = test system: LOX IMVI melanoma
[4] = test system: SF-295 CNS
[5] = test system: NCI/ADR-RES ovarian
[6] = test system: COLO 205 colon
[7] = test system: SK-MEL-2 melanoma
[8] = test system: HOP-62 NSCLC
[9] = test system: KM12 colon
[10] = test system: M14 melanoma

Structure (SMILES)	TGI [1]	TGI [2]	TGI [3]	TGI [4]	TGI [5]	TGI [6]	TGI [7]	TGI [8]	TGI [9]	TGI [10]
CCC(=O)Oc1ccc2c(c1)c(=O)c1c(NCCCN(C)C)ccc3nnn2c31	3.31 µM	19.1 µM	2.88 µM	17.3 µM	18.5 µM	13.7 µM	26.4 µM	16.6 µM	18.3 µM	20.1 µM
C1=Cc2cc3c(c4nccc(c24)N1)OCO3	> 46.6 µM	> 64.7 µM	> 61.1 µM	22.3 µM	> 67.2 µM	23 µM	36.6 µM	> 82.4 µM	23.6 µM	54.5 µM
CC(C)OC(=O)/C=C/C(=O)O/C=C/[N+](=O)[O-]	> 100 µM	> 100 µM	32.9 µM	> 100 µM	> 100 µM	38.3 µM	46.4 µM	> 100 µM	70.6 µM	> 100 µM
N#Cc1c(-c2ccccc2)[nH]c2ccc(Cl)cc2c1=O	> 100 µM	89.7 µM	> 100 µM	66.2 µM	> 100 µM	> 100 µM	94.3 µM	74 µM	> 100 µM	> 100 µM
CC(=O)Oc1ccc2cc(-c3ccccc3OC(C)=O)c(=O)oc2c1	> 100 µM	> 100 µM	> 100 µM	> 100 µM	> 100 µM	> 100 µM	> 100 µM	> 100 µM	> 100 µM	> 100 µM
O=C1c2ccsc2C(=O)c2sc(CO)cc21	0.31 µM	0.48 µM	0.0491 µM	0.951 µM	0.396 µM	1.53 µM	0.232 µM	0.325 µM	3.08 µM	< 0.0154 µM
CCOC(=O)Cc1nc2cc(F)c(F)cc2[nH]c1=O	> 100 µM	> 100 µM	> 100 µM	> 100 µM	> 100 µM	> 100 µM	> 100 µM	> 100 µM	> 100 µM	> 100 µM
Nc1nc(-[n+]2ccc(-c3ccncc3)cc2)nc(Cl)c1Cl	> 100 µM	95.9 µM	33.2 µM		> 100 µM	> 100 µM	> 100 µM	> 100 µM	> 100 µM	> 100 µM
CC(=O)O[C@H]1C(=O)[C@@]2(C)[C@H]([C@H](OC(=O)c3ccoc3)[C@]3(O)C[C@H](OC(=O)[C@H](O)[C@@H](NC(=O)c4ccccc4)c4ccccc4)C(C)=C1C3(C)C)[C@]1(OC(C)=O)CO[C@@H]1C[C@@H]2O	> 12.5 µM	> 12.5 µM	> 12.5 µM	> 12.5 µM	> 12.5 µM		0.696 µM	> 12.5 µM	> 12.5 µM	> 12.5 µM
CC(=O)ONC(C(=O)C(C)(C)C)C(=O)C(C)(C)C	> 100 µM	> 100 µM	> 100 µM	> 100 µM	> 100 µM	> 100 µM	> 100 µM	> 100 µM	> 100 µM	> 100 µM
CCOC(=O)C1C(=O)CC1(C)C (stereo not drawn)	> 10 µM	> 10 µM	> 10 µM	> 10 µM	> 10 µM	> 10 µM	> 10 µM	> 10 µM	> 10 µM	> 10 µM

— PubChem BioAssay (NCI)
